Counter-ions that a name gives are not always drawn. Like-named read-outs stand apart in the source and are kept apart here.
Columns and labels:
human GLP-1R [1] = target: human GLP-1R (Homo sapiens (Human), UniProt P43220, L260F); assay: CHO GLP-1R Clone C6—Assay 2: HTRF cAMP cell-based functional agonist assay (low GLP-1R density); conditions: for EC50: CHO GLP-1R Clone C6, cAMP HTRF, geometric mean; for Emax: read-out: Assay 2 Emax (%)
human GLP-1R [2] = target: human GLP-1R (Homo sapiens, UniProt P43220, G168S); assay: CHO GLP-1R Clone H6—Assay 1: HTRF cAMP cell-based functional agonist assay (high GLP-1R density); conditions: for EC50: CHO GLP-1R Clone H6, cAMP HTRF, geometric mean
Protocol: GLP-1R-mediated agonist activity was determined with a cell-based functional assay utilizing an HTRF (Homogeneous Time-Resolved Fluorescence) cAMP detection kit (cAMP HI Range Assay Kit; CisBio cat #62AM6PEJ) that measures cAMP levels in the cell. The method is a competitive immunoassay between native cAMP produced by the cells and exogenous cAMP labeled with the dye d2. The tracer binding is visualized by a mAb anti-cAMP labeled with Cryptate. The specific signal (i.e. energy transfer) is inversely proportional to the concentration of cAMP in either standard or experimental sample.
The human GLP-1R coding sequence (NCBI Reference Sequence NP_002053.3, including naturally-occurring variant Gly168Ser) was subcloned into pcDNA3 (Invitrogen) and a cell line stably expressing the receptor was isolated (designated Clone H6).
Cells were removed from cryopreservation, re-suspended in 40 mL of Dulbecco's Phosphate Buffered Saline (DPBS-Lonza Cat #17-512Q) and centrifuged at 800×g for 5 min at 22° C. The cell pellet was then re-suspended in 10 mL of growth medium [DMEM/F12 1:1 Mixture with HEPES, L-Gln, 500 mL (DMEM/F12 Lonza Cat #12-719F), 10% heat inactivated fetal bovine serum (Gibco Cat #16140-071), 5 mL of 100× Pen-Strep (Gibco Cat #15140-122), 5 mL of 100× L-Glutamine (Gibco Cat #25030-081) and 500 μg/mL Geneticin (G418) (Invitrogen #10131035)]. A 1 mL sample of the cell suspension in growth media was counted on a Becton Dickinson ViCell to determine cell viability and cell count per mL. The remaining cell suspension was then adjusted with growth media to deliver 2000 viable cells per well using a Matrix Combi Multidrop reagent dispenser, and the cells were dispensed into a white 384 well tissue culture treated assay plate (Corning 3570). The assay plate was then incubated for 48 hours at 37° C. in a humidified environment in 5% carbon dioxide.
Varying concentrations of each compound to be tested (in DMSO) were diluted in assay buffer (HBSS with Calcium/Magnesium (Lonza/BioWhittaker cat #10-527F)/0.1% BSA (Sigma Aldrich cat #A7409-1L)/20 mM HEPES (Lonza/BioWhiftaker cat #17-737E) containing 100 μM 3-isobutyl-1-methylxanthin (IBMX; Sigma cat #15879). The final DMSO concentration is 1%.
After 48 hours, the growth media was removed from the assay plate wells, and the cells were treated with 20 μL of the serially diluted compound in assay buffer for 30 minutes at 37° C. in a humidified environment in 5% carbon dioxide. Following the 30 minute incubation, 10 μL of labeled d2 cAMP and 10 μL of anti-cAMP antibody (both diluted 1:20 in cell lysis buffer; as described in the manufacturer's assay protocol) were added to each well of the assay plate. The plates were then incubated at room temperature and after 60 minutes, changes in the HTRF signal were read with an Envision 2104 multi-label plate reader using excitation of 330 nm and emissions of 615 and 665 nm. Raw data were converted to nM cAMP by interpolation from a cAMP standard curve (as described in the manufacturer's assay protocol) and the percent effect was determined relative to a saturating concentration of the full agonist GLP-17-36 (1 μM) included on each plate. EC50 determinations were made from agonist dose-response curves analyzed with a curve fitting program using a 4-parameter logistic dose response equation.

[3] = CHO GLP-1R Clone C6, relative to saturating concentration of full agonist GLP-1 (1 μM), arithmetic mean
[4] = read-out: Assay 1 Emax (%), CHO GLP-1R Clone H6, relative to saturating concentration of full agonist GLP-1 (1 μM), arithmetic mean

Sequence of human GLP-1R (Homo sapiens (Human), UniProt P43220, L260F) (P43220 24-463 L260F): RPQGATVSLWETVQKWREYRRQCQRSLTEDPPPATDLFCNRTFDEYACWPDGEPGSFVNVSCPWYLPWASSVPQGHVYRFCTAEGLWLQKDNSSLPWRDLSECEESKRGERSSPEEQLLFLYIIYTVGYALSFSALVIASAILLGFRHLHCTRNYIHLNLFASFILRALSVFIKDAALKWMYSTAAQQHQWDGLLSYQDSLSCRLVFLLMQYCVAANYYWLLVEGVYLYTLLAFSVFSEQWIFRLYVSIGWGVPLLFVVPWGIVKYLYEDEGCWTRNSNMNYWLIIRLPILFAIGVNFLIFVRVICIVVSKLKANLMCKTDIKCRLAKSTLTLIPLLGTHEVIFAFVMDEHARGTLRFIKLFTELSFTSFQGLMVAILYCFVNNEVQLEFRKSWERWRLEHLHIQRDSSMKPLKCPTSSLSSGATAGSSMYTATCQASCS
Sequence of human GLP-1R (Homo sapiens, UniProt P43220, G168S) (P43220 24-463 G168S limits assumed): as the sequence (P43220 24-463 L260F) above, with G145S, F237L counted along it

| SMILES | EC50 (human GLP-1R [1]) [nM] | Emax (human GLP-1R [1]; [3]) [%] | EC50 (human GLP-1R [2]; read-out: Assay 1 EC50) [nM] | Emax (human GLP-1R [2]; [4]) [%] | EC50 (human GLP-1R [2]; Assay 1 EC50 (nM)) [nM] | Emax (human GLP-1R [1]) [%] | Emax (human GLP-1R [2]; read-out: Assay 1 Emax (%)) [%] |
| --- | --- | --- | --- | --- | --- | --- | --- |
| COCCn1c(CN2CCN(c3cccc(OCc4ccc(Cl)cc4F)n3)[C@H](C)C2)nc2ccc(C(=O)O)cc21 [Example 1A-14, 2-{[(3R)-4-{6-[(4-chloro-2-fluorobenzyl)oxy]pyridin-2-yl}-3-methylpiperazin-1-yl]methyl}-1-(2-methoxyethyl)-1H-benzimidazole-6-carboxylic acid] | 1600 | 81 | 47 | 71 |  |  |  |
| Cn1cncc1Cn1c(CN2CCC(c3cccc(OCc4ccc(C#N)cc4F)n3)CC2)nc2ccc(C(=O)O)cc21 [Example 1A-16, 2-[(4-{6-[(4-cyano-2-fluorobenzyl)oxy]pyridin-2-yl}piperidin-1-yl)methyl]-1-[(1-methyl-1H-imidazol-5-yl)methyl]-1H-benzimidazole-6-carboxylic acid] | 14 | 82 | 1.5 | 86 |  |  |  |
| Cn1cncc1Cn1c(CN2CCC(c3cccc(OCc4ccc(F)cc4F)n3)CC2)nc2ccc(C(=O)O)cc21 [Example 1A-17, 2-[(4-{6-[(2,4-difluorobenzyl)oxy]pyridin-2-yl}piperidin-1-yl)methyl]-1-[(1-methyl-1H-imidazol-5-yl)methyl]-1H-benzimidazole-6-carboxylic acid] | 45 | 95 | 2.4 | 87 |  |  |  |
| CCCn1cnnc1Cn1c(CN2CCC(c3cccc(OCc4ccc(Cl)cc4F)n3)CC2)nc2ccc(C(=O)O)cc21 [Example 1A-18, 2-[(4-{6-[(4-chloro-2-fluorobenzyl)oxy]pyridin-2-yl}piperidin-1-yl)methyl]-1-[(4-propyl-4H-1,2,4-triazol-3-yl)methyl]-1H-benzimidazole-6-carboxylic acid] | 110 | 94 | 6.4 | 90 |  |  |  |
| C[C@H]1CN(c2cccc(OCc3ccc(Cl)cc3F)n2)CCN1Cc1nc2ccc(C(=O)O)cc2n1C[C@@H]1CCO1 [Example 1A-19, 2-{[(2S)-4-{6-[(4-chloro-2-fluorobenzyl)oxy]pyridin-2-yl}-2-methylpiperazin-1-yl]methyl}-1-[(2S)-oxetan-2-ylmethyl]-1H-benzimidazole-6-carboxylic acid] | 3.2 | 84 | 0.28 | 84 |  |  |  |
| Cn1cnnc1Cn1c(CN2CCC(c3cccc(OCc4ccc(C#N)cc4F)n3)CC2)nc2ccc(C(=O)O)cc21 [Example 1A-20, 2-[(4-{6-[(4-cyano-2-fluorobenzyl)oxy]pyridin-2-yl}piperidin-1-yl)methyl]-1-[(4-methyl-4H-1,2,4-triazol-3-yl)methyl]-1H-benzimidazole-6-carboxylic acid] | 880 | 90 | 44 | 81 |  |  |  |
| N#Cc1ccc(COc2cccc(C3CCN(Cc4nc5ccc(C(=O)O)cc5n4C[C@@H]4CCCO4)CC3)n2)c(F)c1 [Example 1A-21, 2-[(4-{6-[(4-cyano-2-fluorobenzyl)oxy]pyridin-2-yl}piperidin-1-yl)methyl]-1-[(2S)-tetrahydrofuran-2-ylmethyl]-1H-benzimidazole-6-carboxylic acid] | 75 | 83 | 4.9 | 77 |  |  |  |
| CO[C@@H]1CCC[C@H]1n1c(CN2CCC(c3cccc(OCc4ccc(Cl)cc4F)n3)CC2)nc2ccc(C(=O)O)cc21 [Example 1A-27, 2-[(4-{6-[(4-chloro-2-fluorobenzyl)oxy]pyridin-2-yl}piperidin-1-yl)methyl]-1-[(1R,2R)-2-methoxycyclopentyl]-1H-benzimidazole-6-carboxylic acid] | 1400 | 47 | 190 | 91 |  |  |  |
| CO[C@H]1C[C@@H](Cn2c(CN3CCC(c4cccc(OCc5ccc(Cl)cc5F)n4)CC3)nc3ccc(C(=O)O)cc32)C1 [Example 1A-28, 2-[(4-{6-[(4-chloro-2-fluorobenzyl)oxy]pyridin-2-yl}piperidin-1-yl)methyl]-1-[(cis-3-methoxycyclobutyl)methyl]-1H-benzimidazole-6-carboxylic acid] | 7700 | 100 |  | 92 | 300 |  |  |
| COC[C@@H]1C[C@H]1Cn1c(CN2CCC(c3cccc(OCc4ccc(Cl)cc4F)n3)CC2)nc2ccc(C(=O)O)cc21 [Example 1A-30, 2-[(4-{6-[(4-chloro-2-fluorobenzyl)oxy]pyridin-2-yl}piperidin-1-yl)methyl]-1-{[(1R,2R)-2-(methoxymethyl)cyclopropyl]methyl}-1H-benzimidazole-6-carboxylic acid] | 4100 | 110 | 150 | 86 |  |  |  |
| Cn1c(CN2CCC(c3cccc(OCc4ccc(Cl)cc4F)n3)CC2)nc2ccc(C(=O)O)nc21 [Example 2A-01, 2-((4-(6-((4-Chloro-2-fluorobenzyl)oxy)pyridin-2-yl)piperidin-1-yl)methyl)-3-methyl-3H-imidazo[4,5-b]pyridine-5-carboxylic acid hydrochloride] | 1800 |  | 90 |  |  | 89 | 76 |
| COCCn1c(CN2CCC(c3cccc(OCc4ccc(Cl)cc4F)n3)CC2)nc2ncc(C(=O)O)cc21 [Example 2A-02, 2-((4-(6-((4-Chloro-2-fluorobenzyl)oxy)pyridin-2-yl)piperidin-1-yl)methyl)-1-(2-methoxyethyl)-1H-imidazo[4,5-b]pyridine-6-carboxylic acid hydrochloride] | 110 | 89 | 7.9 | 95 |  |  |  |
| Cn1c(CN2CCC(c3cccc(OCc4ccc(Cl)cc4F)n3)CC2)nc2cnc(C(=O)O)cc21 [Example 2A-03, 2-((4-(6-((4-Chloro-2-fluorobenzyl)oxy)pyridin-2-yl)piperidin-1-yl)methyl)-1-methyl-1H-imidazo[4,5-c]pyridine-6-carboxylic acid] | 1200 | 44 | 150 | 74 |  |  |  |
| Cn1c(CN2CCC(c3cccc(OCc4ccc(Cl)cc4F)n3)CC2)nc2ncc(C(=O)O)cc21 [Example 2A-04, 2-[(4-{6-[(4-chloro-2-fluorobenzyl)oxy]pyridin-2-yl}piperidin-1-yl)methyl]-1-methyl-1H-imidazo[4,5-b]pyridine-6-carboxylic acid] | 150 | 92 | 36 | 84 |  |  |  |
| O=C(O)c1cc2c(cn1)nc(CN1CCC(c3cccc(OCc4ccc(Cl)cc4F)n3)CC1)n2C[C@@H]1CCO1 [Example 2A-05, 2-[(4-{6-[(4-chloro-2-fluorobenzyl)oxy]pyridin-2-yl}piperidin-1-yl)methyl]-1-[(2S)-oxetan-2-ylmethyl]-1H-imidazo[4,5-c]pyridine-6-carboxylic acid] | 150 | 84 | 6 | 73 |  |  |  |
| O=C(O)c1cc2c(cn1)nc(CN1CCC(c3cccc(OCc4ccc(Cl)cc4F)n3)CC1)n2Cc1ncco1 [Example 2A-06, 2-[(4-{6-[(4-chloro-2-fluorobenzyl)oxy]pyridin-2-yl}piperidin-1-yl)methyl]-1-(1,3-oxazol-2-ylmethyl)-1H-imidazo[4,5-c]pyridine-6-carboxylic acid] | 170 | 85 | 9 | 82 |  |  |  |
